According to patent publication US20230279146A1, “VISCOSITY REDUCING EXCIPIENTS AND COMBINATIONS THEREOF FOR HIGHLY CONCENTRATED PROTEIN FORMULATIONS” (Merck Patent GmbH, priority 2020, published 2023):
Entries after “also recorded” stand apart in the source; their conditions may differ. Counter-ions that a name gives are not always drawn.

Tests used:
Assay type in all cases: physicochemical
Infliximab [1] = experiment: Viscosity of Infliximab formulated in phosphate buffer pH 7.2 with single excipients (mVROC microfluidic viscometer, 20° C.); settings: for viscosity reducing effect on the Infliximab solution: protein concentrations 152 mg/ml and 185 mg/ml, 150 thiamine hydrochloride, thiamine monophosphate
Procedure: Individual excipient solutions of 150 mM valine, leucine, phenylalanine, ascorbic acid, pyridoxine, proline and thiamine monophosphate were prepared in phosphate buffer pH 7.2. In the same buffer, a 5 mM solution of cyanocobalamin was prepared. Folic acid was prepared in a 13 mM concentration in phosphate puffer pH 7.2. Thiamine pyrophosphate was prepared in a 75 mM concentration in phosphate puffer pH 7.2. The pH was adjusted using HCl or NaOH where necessary.
For absorption spectroscopy, the absorbance at 280 nm was measured using a BioSpectrometer® kinetic (Eppendorf, Hamburg, Germany) with a protein extinction coefficient of A0.1%, 280 nm=1.428.
The mVROC™ Technology (Rheo Sense, San Ramon, Calif., USA) was used for viscosity measurements.
Measurements were performed at 20° C. using a 500 μl syringe and a shear rate of 3000 s-1. A volume of 200 μl was used. All samples were measured as triplicates.
Results of viscosity measurements regarding these experiments can be seen in FIG. 1, FIG. 2 and FIG. 3.

Evolocumab = experiment: Viscosity of Evolocumab formulated in acetate buffer pH 5.0 with single excipients (mVROC microfluidic viscometer, 20° C.); settings: for viscosity of the formulation: Evolocumab 196 mg/ml, 150 mM pyridoxine, thiamine hydrochloride or ascorbic acid, 75 mM Paracetamol; for viscosity of the formulation / viscosity of a Evolocumab formulation: pH 5.0; for viscosity reducing effect compared among the excipients: Evolocumab pH 5.0, 150 mM excipient, data set with concentration by absorption spectroscopy; for viscosity for Evolocumab formulations: pH 5.0, 150 mM excipient
Procedure: 20 mM Acetate buffer was prepared by mixing 1.2 mg/ml glacial acetic acid with ultrapure water. pH was adjusted to 5.0 using HCl and NaOH if necessary. 0.1 mg/ml Polysorbate 80 was added as stabilizer
Excipient solutions of 150 mM leucine, isoleucine, phenylalanine, ascorbic acid, pyridoxine, proline, lysine, guanidine hydrochloride, thiamine hydrochloride, thiamine monophosphate were prepared in acetate buffer pH 5.0, respectively. Similarly, 25 mM quinine hydrochloride and 5 mM cyanocobalamin were prepared, respectively. Paracetamol and thiamine pyrophosphate were prepared with a concentration of 75 mM. The pH was adjusted using HCl or NaOH, if necessary.
When excipients themselves have a strong absorbance at 280 nm a Bradford-Assay was used.
The mVROC™ Technology (Rheo Sense, San Ramon, Calif. USA) was used for viscosity measurements.
A volume of 200 μl was used. All samples were measured as triplicates.

Infliximab [2] = experiment: Thermal stability (Tm, Tagg) of Infliximab in phosphate buffer pH 7.2 by nano-DSF; settings: Infliximab pH 7.2, change versus control; for aggregation onset temperature Tagg: 150 mM excipient; for thermodynamic transition temperature characterizing heat induced protein unfolding (Tm): 150 mM valine, leucine, ascorbic acid or proline, 5 mM cyanocobalamin
Procedure: 2.1 Thermal Stability of Infliximab Formulated in Phosphate Buffer pH 7.2 Containing Valine, Leucine, Ascorbic Acid, Cyanocobalamin and Proline as Single Excipients
Buffers and samples were prepared as described under 1.1.
The nano-DSF Technology of a Prometheus system (NanoTemper Technologies GmbH, Munich, Germany) was used to determine melting points and aggregation points.
Fluorescence was measured at 330 and 350 nm as well as the backscattering intensity over a temperature range from 20 to 95° C. with an incline of 1° C./min.
Buffers and samples were prepared as described under 1.4 and 1.5.
Thermal stability measurements were performed as described under 2.1.

[3] = protein concentration 174 mg/ml, 150 mM pyridoxine, ascorbic acid, thiamine hydrochloride or thiamine phosphate, 5 mM cyanocobalamin, 13 mM folic acid, 75 mM thiamine pyrophosphate, versus formulation without excipients
[4] = 5 mM cyanocobalamin, 25 mM quinine hydrochloride
[5] = protein concentration 149 mg/ml, 150 mM pyridoxine, thiamine hydrochloride or thiamine monophosphate, 5 mM cyanocobalamin, 13 mM folic acid, 75 mM thiamine pyrophosphate
[6] = higher protein concentration of 192 mg/ml
[7] = protein concentration 192 mg/ml (first mention, absorption spectroscopy)
[8] = protein concentration 122 mg/ml (absorption spectroscopy), pH 7.2, 150 mM excipient, versus no excipient
[9] = protein concentration 143 mg/ml, pH 7.2, 150 mM excipient, versus no excipient
[10] = protein concentration 180 mg/ml (Bradford assay), 150 mM pyridoxine or thiamine hydrochloride, 5 mM cyanocobalamin, 25 mM quinine hydrochloride, 75 mM paracetamol
[11] = third data set, 75 mM thiamine pyrophosphate, 150 mM thiamine hydrochloride, thiamine monophosphate (thiamine monophosphate only at 180 mg/ml)

Compound | viscosity of the formulation (Infliximab [1]; [3]) | viscosity of the formulation (Evolocumab; [4]) | thermodynamic transition temperature characterizing heat induced protein unfolding (Tm) (Infliximab [2]) | viscosity of the formulation (Infliximab [1]; [5]) | viscosity for Evolocumab formulations (Evolocumab; [6]) | viscosity for Evolocumab formulations (Evolocumab; [7]) | viscosity of a Evolocumab formulation (Evolocumab; [10]) | other results
O=C1O[C@H]([C@@H](O)CO)C(O)=C1O [ascorbic acid] | viscosity reducing effect | reduced viscosity of the formulation | increase |  |  |  |  | aggregation onset temperature Tagg (Infliximab [2]): increase
Nc1nc2ncc(CNc3ccc(C(=O)N[C@@H](CCC(=O)O)C(=O)O)cc3)nc2c(=O)[nH]1 [folic acid] | reduce the viscosity of the formulation |  |  | reduce the viscosity of the formulation |  |  |  | 
N=C(N)N [guanidine hydrochloride, carbamimidoylazanium chloride] |  |  |  |  | reduced viscosity | reduced viscosity |  | viscosity reducing effect compared among the excipients (Evolocumab): most pronounced viscosity reducing effect
CC[C@H](C)[C@H](N)C(=O)O [isoleucine] |  |  |  |  | reduced viscosity | reduced viscosity |  | 
CC(C)C[C@H](N)C(=O)O [leucine] |  |  | increase |  | reduced viscosity | reduced viscosity |  | viscosity of the formulation (Infliximab [1]; [8]): reduced the viscosity of the formulation; viscosity of the formulation (Infliximab [1]; [9]): reduced viscosity of the formulation; viscosity reducing effect compared among the excipients (Evolocumab): most pronounced viscosity reducing effect; aggregation onset temperature Tagg (Infliximab [2]): increase
NCCCC[C@H](N)C(=O)O [lysine] |  |  |  |  | reduced viscosity | reduced viscosity |  | viscosity reducing effect compared among the excipients (Evolocumab): most pronounced viscosity reducing effect
CC(=O)Nc1ccc(O)cc1 [paracetamol, reference compound] |  | reduced the viscosity of the formulation |  |  |  |  | reduced viscosity of the formulation | 
cyanocobalamin | reduce the viscosity of the formulation | reduced the viscosity of the formulation | increase | reduce the viscosity of the formulation |  |  | reduced viscosity of the formulation | 

Further lines, with some results ahead:

viscosity of the formulation (Infliximab [1]; [3]) | viscosity of the formulation (Evolocumab; [4]) | thermodynamic transition temperature characterizing heat induced protein unfolding (Tm) (Infliximab [2]) | viscosity of the formulation (Infliximab [1]; [5]) | viscosity for Evolocumab formulations (Evolocumab; [6]) | viscosity for Evolocumab formulations (Evolocumab; [7]) | viscosity of a Evolocumab formulation (Evolocumab; [10]) | Compound | other results
 |  |  |  | reduced viscosity | reduced viscosity |  | N[C@@H](Cc1ccccc1)C(=O)O [phenylalanine] | viscosity of the formulation (Infliximab [1]; [8]): reduced the viscosity of the formulation; viscosity of the formulation (Infliximab [1]; [9]): reduced viscosity of the formulation; also recorded: most efficient viscosity reducing excipient
 |  | increase |  | reduced viscosity |  |  | O=C(O)[C@@H]1CCCN1 [proline] | viscosity of the formulation (Infliximab [1]; [8]): reduced the viscosity of the formulation; viscosity of the formulation (Infliximab [1]; [9]): reduced viscosity of the formulation; aggregation onset temperature Tagg (Infliximab [2]): increase
viscosity reducing effect | reduced viscosity of the formulation |  | reduce the viscosity of the formulation |  |  | reduced | Cc1ncc(CO)c(CO)c1O [pyridoxine] | 
 | reduced the viscosity of the formulation |  |  |  |  | reduced viscosity of the formulation | C=C[C@H]1C[N@@]2CC[C@H]1C[C@H]2[C@H](O)c1ccnc2ccc(OC)cc12 [quinine hydrochloride, (R)-[(1S,2S,4S,5R)-5-ethenyl-1-azabicyclo[2.2.2]octan-2-yl](6-methoxyquinolin-4-yl)methanol dihydrate hydrochloride, reference compound] | 
 |  |  |  |  |  | reduced | Cc1ncc(C[n+]2csc(CCO)c2C)c(N)n1 [thiamine hydrochloride] | viscosity of the formulation (Infliximab [1]; protein concentration 149 mg/ml, 150 mM pyridoxine, thiamine hydrochloride or thiamine monophosphate, 5 mM cyanocobalamin, 13 mM folic acid, 75 mM thiamine pyrophosphate, hydrochloride): reduce the viscosity of the formulation; also recorded: high viscosity reducing potential; viscosity of the formulation (Infliximab [1]; protein concentration 174 mg/ml, 150 mM pyridoxine, ascorbic acid, thiamine hydrochloride or thiamine phosphate, 5 mM cyanocobalamin, 13 mM folic acid, 75 mM thiamine pyrophosphate, versus formulation without excipients, hydrochloride): high viscosity reducing potential; viscosity of the formulation (Infliximab [1]; protein concentration 174 mg/ml, 150 mM pyridoxine, ascorbic acid, thiamine hydrochloride or thiamine phosphate, 5 mM cyanocobalamin, 13 mM folic acid, 75 mM thiamine pyrophosphate, versus formulation without excipients, listed as thiamine hydrochoride, hydrochloride): viscosity reducing effect; viscosity reducing effect on the Infliximab solution (Infliximab [1]; 75 mM thiamine pyrophosphate): strong viscosity reducing effect; viscosity of the formulation (Evolocumab; 5 mM cyanocobalamin, 25 mM quinine hydrochloride, hydrochloride): reduced viscosity of the formulation; also recorded: most efficient viscosity reducing excipient; viscosity of a Evolocumab formulation (Evolocumab; [11]): reduced the viscosity
high viscosity reducing potential |  |  | reduce the viscosity of the formulation |  |  |  | Cc1ncc(C[n+]2csc(CCOP(=O)(O)O)c2C)c(N)n1 [thiamine monophosphate] | viscosity of the formulation (Infliximab [1]; protein concentration 174 mg/ml, 150 mM pyridoxine, ascorbic acid, thiamine hydrochloride or thiamine phosphate, 5 mM cyanocobalamin, 13 mM folic acid, 75 mM thiamine pyrophosphate, versus formulation without excipients, listed as thiamine phosphate): viscosity reducing effect; viscosity reducing effect on the Infliximab solution (Infliximab [1]; 75 mM thiamine pyrophosphate): strong viscosity reducing effect; viscosity of a Evolocumab formulation (Evolocumab; [11]): reduced the viscosity
reduce the viscosity of the formulation |  |  | reduce the viscosity of the formulation |  |  |  | Cc1ncc(C[n+]2csc(CCO[P@](=O)(O)OP(=O)(O)O)c2C)c(N)n1 [thiamine pyrophosphate] | viscosity reducing effect on the Infliximab solution (Infliximab [1]; 75 mM thiamine pyrophosphate): strong viscosity reducing effect; viscosity reducing efficiency (Evolocumab; formulations with 179 mg/ml and 204 mg/ml Evolocumab, 75 mM excipient): highly efficient; viscosity of a Evolocumab formulation (Evolocumab; [11]): reduced the viscosity
 |  | increase |  |  |  |  | CC(C)[C@H](N)C(=O)O [valine] | viscosity of the formulation (Infliximab [1]; [8]): reduced the viscosity of the formulation; aggregation onset temperature Tagg (Infliximab [2]): increase
